“Also recorded” adds a separate entry of the source. Marks after values point to notes of the source that are not given here.
Tests used:
scleritis [1] = experiment: Clinical efficacy on scleritis: vision recovery in one month (logarithmic visual acuity chart); assay type: in vivo, patients; conditions: for Ineffective / Total effective rate / Improved / Significantly improved vision: scleritis patients, n=10 per group, vision recovery in one month; for Improved: improving 1-2 lines; for Significantly improved vision: improving 3 lines or more
Procedure: (§1) Twenty patients with scleritis were randomly divided into chlorogenic acid test group (10 patients) and control group (10 patients). Patients in chlorogenic acid test group were given chlorogenic acid at a dose of 3 mg/(kg·d) by intramuscular injection. The patients in the control group were given dexamethasone sodium phosphate (5 mg/d) by intravenous injection, and after continuous observation and treatment for 5 days, they initially received oral […] (1 mg/(kg·d)). Both groups were continuously administrated for one month.
(§2) According to the random table, 20 patients with scleritis were randomly divided into two groups, namely chlorogenic acid test group and dexamethasone sodium phosphate control group. Among 10 patients of chlorogenic acid control group, there were one male and 9 females, with an average age of (30.5±5.1) years old and an average course of disease (5.1±0.3). In the dexamethasone sodium phosphate control group, there were one male and 9 females, with an average age of (31.5±4.7) years old and an average course of disease (5.5±0.3). For both groups of patients, there was no statistically significant difference (P>0.05) in the clinical data including age, gender, and disease course, having comparability.
(§3) (1) Inquiring the medical history in detail, performing detailed examinations such as slit lamp examination, fundus examination, ultrasound examination, eye imaging, etc., and making a clear diagnosis of the patient with scleritis; (2) No glucocorticoid and chlorogenic acid contraindications; (3) Patients having non-microbial infectious scleritis; (4) Patients having no obvious abnormalities in blood routine, electrolytes, liver function, kidney function, blood pressure, blood sugar, and so on.
(§4) (1) Patients with microbial infectious scleritis and systemic infectious diseases; (2) Episcleritis; (3) Patients allergic to glucocorticoids or having toxic side effects due to administration of glucocorticoids; (4) Pregnant women and lactating women as well as babies; (5) Patients with moderate hypertension, severe cardiovascular and cerebrovascular diseases, diabetes, as well as liver and kidney function impairment; (6) Patients having poor compliance and refusing regular review and follow-up.
(§5) Patients in chlorogenic acid test group were given chlorogenic acid at a dose of 3 mg/(kg·d) by intramuscular injection. The patients in the control group were given dexamethasone sodium phosphate at 5 mg/day by intravenous infusion, and after continuous observation and treatment for 3 days, they were changed to oral prednison (1 mg/(kg·d)). Both groups were continuously administrated for one month.
(1) After treatment, the same logarithmic visual acuity chart (the best corrected visual acuity was measured for those with ametropia) was used to detect and record the vision. Significant improvement: improving 3 lines or more; improvement: improving 1-2 lines; ineffective: the vision was not improved or even decreased.

[2] = test system: experimental autoimmune uveitis (EAU); experiment: Therapeutic effect on IRBP-induced experimental autoimmune uveitis in rats; slit-lamp ocular inflammation score (Caspi clinical grading); assay type: in vivo, SD rats; conditions: 20 mg/kg intraperitoneal; for Scores of ocular inflammation in rats: EAU SD rats
scleritis [3] = experiment: Clinical efficacy on scleritis: inflammation control in one month; assay type: in vivo, patients; conditions: for Cure / Improved / Ineffective / Total effective rate: scleritis patients, n=10 per group, inflammation control in one month
Procedure: as §1, §2, §3, §4, §5
(1) Cure: the eye symptoms and signs completely disappeared after treatment; (2) Improved: the eye symptoms and signs improved after treatment; (3) Ineffective: the inflammation was not controlled, or the situation was the same as before treatment.

[4] = 3 mg/(kg·d) intramuscular, one month, vs dexamethasone sodium phosphate control, P<0.05

O=C(/C=C/c1ccc(O)c(O)c1)O[C@@H]1C[C@](O)(C(=O)O)C[C@@H](O)[C@H]1O [Chlorogenic acid]
Vision recovery versus control group (scleritis [1]; [4]): significantly better than the control group
Ineffective (scleritis [1]): 1 (10%) case (%)
Total effective rate (scleritis [1]): 90 (90%)* case (%)
Improved (scleritis [1]): 3 (30%) case (%)
Significantly improved vision (scleritis [1]): 6 (60%)* case (%)
Ocular inflammation (score) compared with the control group at the same time point ([2]; vs normal saline control, P<0.05): significantly reduced; also recorded: significantly lower
Scores of ocular inflammation in rats ([2]; day 6 after immunization): 0.6 ± 0.2
Scores of ocular inflammation in rats ([2]; day 7 after immunization): 0.6 ± 0.2
Scores of ocular inflammation in rats ([2]; day 8 after immunization): 0.7 ± 0.4
Scores of ocular inflammation in rats ([2]; day 9 after immunization): 1.1 ± 0.4
Scores of ocular inflammation in rats ([2]; day 10 after immunization): 1.3 ± 0.6
Scores of ocular inflammation in rats ([2]; day 11 after immunization): 1.9 ± 0.6
Scores of ocular inflammation in rats ([2]; day 12 after immunization): 2.0 ± 0.4
Scores of ocular inflammation in rats ([2]; day 13 after immunization): 1.3 ± 0.6
Scores of ocular inflammation in rats ([2]; day 14 after immunization): 1.1 ± 0.3
Scores of ocular inflammation in rats ([2]; day 15 after immunization): 0.5 ± 0.3
Scores of ocular inflammation in rats ([2]; day 16 after immunization): 0.4 ± 0.3
Scores of ocular inflammation in rats ([2]; day 17 after immunization): 0.3 ± 0.1
Scores of ocular inflammation in rats ([2]; day 18 after immunization): 0.3 ± 0.1
Scores of ocular inflammation in rats ([2]; day 19 after immunization): 0.3 ± 0.1
Scores of ocular inflammation in rats ([2]; day 20 after immunization): 0.3 ± 0.1
Inflammation control effect versus control group (scleritis [3]; [4]): significantly better than the control group
Cure (scleritis [3]): 5 (50%)* cases (%)
Improved (scleritis [3]): 3 (30%) cases (%)
Ineffective (scleritis [3]): 2 (20%) cases (%)
Total effective rate (scleritis [3]): 8 (80%)* cases (%)

C[C@@H]1C[C@H]2[C@@H]3CCC4=CC(=O)C=C[C@]4(C)[C@@]3(F)[C@@H](O)C[C@]2(C)[C@@]1(O)C(=O)COP(=O)(O)O [Control group, dexamethasone sodium phosphate, reference compound]
Ineffective (scleritis [1]): 4 (40%) case (%)
Total effective rate (scleritis [1]): 60 (60%) case (%)
Improved (scleritis [1]): 3 (30%) case (%)
Significantly improved vision (scleritis [1]): 3 (30%) case (%)
Cure (scleritis [3]): 2 (20%) cases (%)
Improved (scleritis [3]): 3 (30%) cases (%)
Ineffective (scleritis [3]): 5 (50%) cases (%)
Total effective rate (scleritis [3]): 5 (50%) cases (%)

Source: patent US20220184019A1, “Use of chlorogenic acid in preparation of drug for preventing and treating ocular inflammation” (SICHUAN JIUZHANG BIOLOGICAL SCIENCE AND TECHNOLOGY CO., LTD, priority 2017, published 2022)
